From BindingDB's records for doi:10.7270/Q2CV4GM1 (D3R/Abbott, 2015)
Values joined by “and” are separate entries in the source; they are usually repeats but may differ in a detail not shown here. Identical values can stand only once.

Biological target: T1, Tyrosine-protein kinase SYK [355-635] (Homo sapiens, UniProt P43405)
T1 construct: 355-635
Test: SYK assay_HTRF

Row | SMILES | IC50
1 | NC(=O)c1cccc(Nc2nccc(Nc3cccc4[nH]ncc34)n2)c1 [3-{[4-(1H-indazol-4-ylamino)pyrimidin-2-yl]amino}benzamide] | 0.533 µM
2 | NS(=O)(=O)c1cccc(Nc2nccc(Nc3cccc4[nH]ncc34)n2)c1 [3-{[4-(1H-indazol-4-ylamino)pyrimidin-2-yl]amino}benzene-1-sulfonamide] | 0.018 µM and 0.0475 µM
3 | O=C1Cc2cc(Nc3nccc(Nc4cccc5[nH]ncc45)n3)ccc2N1 [GTC000107A] | 0.18 µM and 0.071 µM and 0.0807 µM and 0.115 µM
4 | NC(=O)c1ccc(Nc2nccc(Nc3cccc4[nH]ncc34)n2)cc1 [GTC000108B] | 0.1 µM and 0.218 µM and 0.0514 µM and 0.0598 µM
5 | Cc1cc(=O)[nH]c2cc(Nc3nccc(Nc4cccc5[nH]ncc45)n3)ccc12 [GTC000109A] | 0.0536 µM
6 | c1cc(Nc2ccnc(Nc3ccc4c(c3)CCO4)n2)c2cn[nH]c2c1 [GTC000111A] | 0.222 µM
7 | c1cc(Nc2ccnc(Nc3ccc4nn[nH]c4c3)n2)c2cn[nH]c2c1 [GTC000112A] | 0.0528 µM and 0.0798 µM
8 | c1cc(Nc2ccnc(Nc3cccc4[nH]ncc34)n2)c2cn[nH]c2c1 [GTC000113A] | 0.16 µM
9 | CC(=O)N1CCc2cc(Nc3nccc(Nc4cccc5[nH]ncc45)n3)ccc21 [GTC000114A] | 0.206 µM
10 | O=c1[nH]c2ccc(Nc3nccc(Nc4cccc5[nH]ncc45)n3)cc2[nH]1 [GTC000115A] | 0.0783 µM
11 | O=C1CCc2ccc(Nc3nccc(Nc4cccc5[nH]ncc45)n3)cc21 [GTC000116A] | 0.195 µM and 0.146 µM
12 | O=C1CCCc2cc(Nc3nccc(Nc4cccc5[nH]ncc45)n3)ccc21 [GTC000117A] | 0.0912 µM
13 | COc1cc(Nc2nccc(Nc3cccc4[nH]ncc34)n2)cc(OC)c1 [GTC000118A] | 0.0353 µM and 0.0671 µM and 0.0935 µM and 0.203 µM
14 | O=C(O)c1cccc(Nc2nccc(Nc3cccc4[nH]ncc34)n2)c1 [GTC000119A] | 0.207 µM
15 | c1cc(Nc2ccnc(Nc3ccc4ncsc4c3)n2)c2cn[nH]c2c1 [GTC000122A] | 0.04 µM and 0.0535 µM
16 | Cc1nc2ccc(Nc3nccc(Nc4cccc5[nH]ncc45)n3)cc2s1 [GTC000123A] | 0.0601 µM and 0.0885 µM
17 | Cn1ncc2ccc(Nc3nccc(Nc4cccc5[nH]ncc45)n3)cc21 [GTC000124A] | 0.0168 µM and 0.0217 µM
18 | O=C(O)Cc1cccc(Nc2nccc(Nc3cccc4[nH]ncc34)n2)c1 [GTC000125A] | 0.118 µM and 0.493 µM
19 | c1cc(Nc2nccc(Nc3cccc4[nH]ncc34)n2)cc(-c2cc[nH]n2)c1 [GTC000126A] | 0.0223 µM and 0.0419 µM
20 | COC(=O)c1cccc(Nc2nccc(Nc3cccc4[nH]ncc34)n2)c1 [GTC000127B] | 0.25 µM and 0.0585 µM and 0.127 µM
21 | CC(C)c1ccc(Nc2nccc(Nc3cccc4[nH]ncc34)n2)cc1 [GTC000128A] | 0.219 µM
22 | c1cc(Nc2ccnc(Nc3ccc(N4CCOCC4)cc3)n2)c2cn[nH]c2c1 [GTC000129A] | 0.22 µM

Row | SMILES | IC50
23 | c1cc(Nc2nccc(Nc3cccc4[nH]ncc34)n2)cc(-c2nnn[nH]2)c1 [GTC000130A] | 0.00343 µM and 0.0143 µM
24 | N#Cc1cccc(Nc2nccc(Nc3cccc4[nH]ncc34)n2)c1 [GTC000131A] | 0.0624 µM and 0.0705 µM
25 | FC(F)(F)c1cccc(Nc2nccc(Nc3cccc4[nH]ncc34)n2)c1 [GTC000132A] | 0.154 µM and 0.127 µM and 0.151 µM and 0.44 µM
26 | O=C1NS(=O)(=O)c2cc(Nc3nccc(Nc4cccc5[nH]ncc45)n3)ccc21 [GTC000133A] | 0.0173 µM and 0.0446 µM
27 | Cc1ncoc1-c1cccc(Nc2nccc(Nc3cccc4[nH]ncc34)n2)c1 [GTC000134A] | 0.0292 µM and 0.0498 µM and 0.0661 µM and 0.13 µM
28 | COc1ccc(Nc2nccc(Nc3cccc4[nH]ncc34)n2)cc1 [GTC000135A] | 0.179 µM and 0.225 µM and 0.243 µM and 0.923 µM
29 | FC(F)(F)c1ccc(Nc2nccc(Nc3cccc4[nH]ncc34)n2)cc1 [GTC000136A] | 0.206 µM
30 | c1cc(Nc2nccc(Nc3cccc4[nH]ncc34)n2)cc(-c2ccsc2)c1 [GTC000137A] | 0.0942 µM and 0.162 µM and 0.16 µM and 0.353 µM
31 | Oc1ccc(Nc2nccc(Nc3cccc4[nH]ncc34)n2)cc1 [GTC000138A] | 0.195 µM and 0.0505 µM
32 | N#Cc1ccc(Nc2nccc(Nc3cccc4[nH]ncc34)n2)cc1 [GTC000139A] | 0.211 µM
33 | CNC(=O)COc1cccc(Nc2nccc(Nc3cccc4[nH]ncc34)n2)c1 [GTC000140A] | 0.0363 µM and 0.0457 µM and 0.0374 µM and 0.0807 µM
34 | COc1ccc(Nc2nccc(Nc3cccc4[nH]ncc34)n2)cc1Cl [GTC000141A] | 0.14 µM and 0.145 µM and 0.284 µM and 0.612 µM
35 | c1cc(Nc2ccnc(Nc3ccc4c(c3)CCC4)n2)c2cn[nH]c2c1 [GTC000142A] | 0.114 µM and 0.255 µM
36 | O=C1Nc2cc(Nc3nccc(Nc4cccc5[nH]ncc45)n3)ccc2OC1(F)F [GTC000144A] | 0.0135 µM and 0.104 µM
37 | CC1(C)Oc2ccc(Nc3nccc(Nc4cccc5[nH]ncc45)n3)cc2NC1=O [GTC000145A] | 0.0386 µM and 0.153 µM
38 | CNC(=O)c1ccc(Nc2nccc(Nc3cccc4[nH]ncc34)n2)cc1 [GTC000146A] | 0.0653 µM and 0.114 µM
39 | O=S1(=O)Cc2ccc(Nc3nccc(Nc4cccc5[nH]ncc45)n3)cc2C1 [GTC000147A] | 0.0605 µM and 0.109 µM
40 | Cc1nc(-c2cccc(Nc3nccc(Nc4cccc5[nH]ncc45)n3)c2)no1 [GTC000148A] | 0.0067 µM and 0.032 µM
41 | O=C1Nc2ccc(Nc3nccc(Nc4cccc5[nH]ncc45)n3)cc2CO1 [GTC000149A] | 0.00721 µM and 0.0252 µM
42 | CCN(CC)C(=O)c1ccc(Nc2nccc(Nc3cccc4[nH]ncc34)n2)cc1 [GTC000150A] | 0.315 µM
43 | O=C1OCc2cc(Nc3nccc(Nc4cccc5[nH]ncc45)n3)ccc21 [GTC000152A] | 0.0685 µM and 0.0885 µM

The remaining lines, values ahead:

Row | IC50 | SMILES
44 | 0.0422 µM and 0.0859 µM and 0.0541 µM | O=S1(=O)NCc2cc(Nc3nccc(Nc4cccc5[nH]ncc45)n3)ccc21 [GTC000153A]
45 | 0.0223 µM and 0.0415 µM | O=C1Cc2ccc(Nc3nccc(Nc4cccc5[nH]ncc45)n3)cc2N1 [GTC000154A]
46 | 0.0405 µM and 0.0659 µM and 0.0776 µM and 0.267 µM | c1cc(Nc2ccnc(Nc3ccc4c(c3)OCO4)n2)c2cn[nH]c2c1 [GTC000155A]
47 | 0.0187 µM and 0.0336 µM | c1cc(Nc2nccc(Nc3cccc4[nH]ncc34)n2)cc(-c2cnco2)c1 [GTC000156A]
48 | 0.0054 µM and 0.0152 µM | c1cc(Nc2nccc(Nc3cccc4[nH]ncc34)n2)cc(-c2nc3ccccc3[nH]2)c1 [GTC000157A]
49 | 0.0986 µM and 0.0891 µM and 0.244 µM | Cn1c(=O)n(C)c2cc(Nc3nccc(Nc4cccc5[nH]ncc45)n3)ccc21 [GTC000158A]
50 | 0.0281 µM | Cc1cc(=O)[nH]c2ccc(Nc3nccc(Nc4cccc5[nH]ncc45)n3)cc12 [GTC000159A]
51 | 0.0484 µM and 0.076 µM | c1cc(Nc2ccnc(Nc3ccc4oncc4c3)n2)c2cn[nH]c2c1 [GTC000160A]
52 | 0.11 µM and 0.094 µM and 0.245 µM | Cn1cnc2cc(Nc3nccc(Nc4cccc5[nH]ncc45)n3)ccc21 [GTC000162A]
53 | 0.149 µM and 0.221 µM | Cc1ncoc1-c1ccc(Nc2nccc(Nc3cccc4[nH]ncc34)n2)cc1 [GTC000163A]
54 | 0.0585 µM and 0.0861 µM and 0.214 µM | Cn1ncc2cc(Nc3nccc(Nc4cccc5[nH]ncc45)n3)ccc21 [GTC000164A]
55 | 0.119 µM and 0.18 µM and 0.34 µM and 0.202 µM | c1cc(Nc2ccnc(Nc3ccc(-c4cnco4)cc3)n2)c2cn[nH]c2c1 [GTC000165A]
56 | 0.242 µM | O=C1CNC(=O)N1c1ccc(Nc2nccc(Nc3cccc4[nH]ncc34)n2)cc1 [GTC000166A]
57 | 0.233 µM | O=C1CNC(=O)N1c1cccc(Nc2nccc(Nc3cccc4[nH]ncc34)n2)c1 [GTC000167A]
58 | 0.468 µM | Cc1nc2cc(Nc3nccc(Nc4cccc5[nH]ncc45)n3)ccc2s1 [GTC000168A]
59 | 0.421 µM and 0.242 µM | O=c1ccc2cc(Nc3nccc(Nc4cccc5[nH]ncc45)n3)ccc2o1 [GTC000169A]
60 | 0.573 µM | CN1C(=O)c2ccc(Nc3nccc(Nc4cccc5[nH]ncc45)n3)cc2C1=O [GTC000170A]
61 | 0.506 µM | O=C1NC(=O)c2cc(Nc3nccc(Nc4cccc5[nH]ncc45)n3)ccc21 [GTC000171A]
62 | 0.589 µM | CCN(C(C)=O)c1ccc(Nc2nccc(Nc3cccc4[nH]ncc34)n2)cc1 [GTC000172A]
63 | 0.148 µM and 0.195 µM and 0.348 µM and 0.71 µM | c1ccc(COc2cccc(Nc3nccc(Nc4cccc5[nH]ncc45)n3)c2)cc1 [GTC000173A]
64 | 0.175 µM and 0.209 µM | COC(=O)c1ccc(Nc2nccc(Nc3cccc4[nH]ncc34)n2)cc1 [GTC000174A]
65 | 0.793 µM | CC(=O)N(C)c1ccc(Nc2nccc(Nc3cccc4[nH]ncc34)n2)cc1 [GTC000175A]

Row | IC50 | SMILES
66 | 0.508 µM | CC(C)(C)c1ccc(Nc2nccc(Nc3cccc4[nH]ncc34)n2)cc1 [GTC000176A]
67 | 0.0139 µM and 0.0431 µM and 0.0354 µM and 0.0196 µM | Cc1cc(=O)[nH]c2c(C)cc(Nc3nccc(Nc4cccc5[nH]ncc45)n3)cc12 [GTC000177A]
68 | 0.685 µM | CC(C)ONS(=O)(=O)c1cccc(Nc2nccc(Nc3cccc4[nH]ncc34)n2)c1 [GTC000178A]
69 | 4.16 µM | O=S(=O)(c1cccc(Nc2nccc(Nc3cccc4[nH]ncc34)n2)c1)N1CCCCC1 [GTC000179A]
70 | 0.2 µM and 0.276 µM | CONS(=O)(=O)c1ccc(Nc2nccc(Nc3cccc4[nH]ncc34)n2)cc1 [GTC000180A]
71 | 0.0655 µM and 0.211 µM and 0.194 µM and 0.162 µM and 0.0729 µM | NS(=O)(=O)c1ccc(Nc2nccc(Nc3cccc4[nH]ncc34)n2)cc1 [GTC000181A]
72 | 0.433 µM and 0.398 µM | O=C(Nc1ccccc1)c1ccc(Nc2nccc(Nc3cccc4[nH]ncc34)n2)cc1 [GTC000182A]
73 | 0.546 µM and 0.618 µM | Cc1ccc(NC(=O)c2ccc(Nc3nccc(Nc4cccc5[nH]ncc45)n3)cc2)cc1 [GTC000183A]
74 | 0.493 µM and 0.443 µM and 0.161 µM | CNS(=O)(=O)c1ccc(Nc2nccc(Nc3cccc4[nH]ncc34)n2)cc1 [GTC000184A]
75 | 4.19 µM | CN1CCN(C(=O)c2ccc(Nc3nccc(Nc4cccc5[nH]ncc45)n3)cc2)CC1 [GTC000185A]
76 | 0.615 µM and 0.427 µM | O=S(=O)(Nc1nccs1)c1ccc(Nc2nccc(Nc3cccc4[nH]ncc34)n2)cc1 [GTC000186A]
77 | 1.38 µM and 0.971 µM | Cc1noc(NS(=O)(=O)c2ccc(Nc3nccc(Nc4cccc5[nH]ncc45)n3)cc2)c1C [GTC000187A]
78 | 1.8 µM and 1.34 µM | O=S(=O)(c1ccc(Nc2nccc(Nc3cccc4[nH]ncc34)n2)cc1)N1CCCC1 [GTC000188A]
79 | 0.741 µM and 0.942 µM and 0.582 µM | Cc1cc(NS(=O)(=O)c2ccc(Nc3nccc(Nc4cccc5[nH]ncc45)n3)cc2)no1 [GTC000189A]
80 | 1.1 µM | O=S(=O)(O)c1cccc(Nc2nccc(Nc3cccc4[nH]ncc34)n2)c1 [GTC000190A]
81 | 0.673 µM and 0.571 µM | O=S(=O)(Nc1ccccn1)c1ccc(Nc2nccc(Nc3cccc4[nH]ncc34)n2)cc1 [GTC000191A]
82 | 0.611 µM | O=C(COc1ccc(Nc2nccc(Nc3cccc4[nH]ncc34)n2)cc1)NCCCO [GTC000192A]
83 | 0.575 µM | O=S(=O)(Cc1cccc(Nc2nccc(Nc3cccc4[nH]ncc34)n2)c1)NCCCO [GTC000193A]
84 | 1.18 µM and 1.96 µM and 1.64 µM | CC(C)(C)OC(=O)COc1ccc(Nc2nccc(Nc3cccc4[nH]ncc34)n2)cc1 [GTC000194A]
85 | 0.426 µM | CNS(=O)(=O)Cc1ccc(Nc2nccc(Nc3cccc4[nH]ncc34)n2)cc1 [GTC000195A]
86 | 0.227 µM | NC(=O)COc1ccc(Nc2nccc(Nc3cccc4[nH]ncc34)n2)cc1 [GTC000196A]
87 | 0.299 µM | CNC(=O)COc1ccc(Nc2nccc(Nc3cccc4[nH]ncc34)n2)cc1 [GTC000197A]
